Data published in ChEMBL document CHEMBL1141061, “Structural elucidation of A-74528, an inhibitor for 2',5'-phosphodiesterase isolated from Streptomyces sp” (Bioorg Med Chem Lett, 2005).
In brackets after ≈: the same amount, converted by molar mass.

Assay: Inhibitory concentration against human 2'-phosphodiesterase

- IC50: 34 mg/L (≈ 60.7 µM)
SMILES: C[C@@H]1c2c(O)cc(O)c3c2[C@H]2[C@H](CC(=O)C4=C(O)c5c(O)cc(O)cc5[C@@H](C3=O)[C@]42Cc2cc(O)cc(=O)o2)[C@H]1O
